# Results taken from PMC6556873, “Rapid Covalent-Probe Discovery by Electrophile-Fragment Screening” (Journal of the American Chemical Society, 2019).
# Like-named read-outs stand apart in the source and are kept apart here.
# Assays:
# PCAF = target: T1, PCAF (Homo sapiens, UniProt Q92831); set-up: Intact protein LC/MS covalent labelling, fragments in pools of five, 200 uM each, 4 °C; details: 24 h, 4 °C, pool of five; 200 µM; covalent
# T1 construct: gene KAT2B
# OTUB2 (OTUB2A) = target: T2, OTUB2 (OTUB2A) (Homo sapiens, UniProt Q96DC9); set-up: Intact protein LC/MS covalent labelling, fragments in pools of five, 200 uM each, 4 °C; details: 24 h, 4 °C, pool of five; 200 µM; covalent
# T2 construct: full length residues 1-234, E. coli BL21(DE3)-R3, His tag removed by TEV, construct 27312 Da
# T2 sequence (Q96DC9 1-234): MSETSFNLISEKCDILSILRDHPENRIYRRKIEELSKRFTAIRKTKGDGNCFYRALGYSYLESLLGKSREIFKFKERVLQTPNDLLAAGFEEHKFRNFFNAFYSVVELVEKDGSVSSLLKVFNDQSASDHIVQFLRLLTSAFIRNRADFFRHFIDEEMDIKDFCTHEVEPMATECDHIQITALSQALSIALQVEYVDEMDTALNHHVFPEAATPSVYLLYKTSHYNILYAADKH
# BSA = target: T3, BSA (Bos taurus, UniProt P02769); set-up: Intact protein LC/MS covalent labelling, fragments in pools of five, 200 uM each, 4 °C; details: 24 h, 4 °C, pool of five; 200 µM; covalent
# T3 construct: gene ALB
# T3 sequence (P02769 whole entry, the tested form may be a part): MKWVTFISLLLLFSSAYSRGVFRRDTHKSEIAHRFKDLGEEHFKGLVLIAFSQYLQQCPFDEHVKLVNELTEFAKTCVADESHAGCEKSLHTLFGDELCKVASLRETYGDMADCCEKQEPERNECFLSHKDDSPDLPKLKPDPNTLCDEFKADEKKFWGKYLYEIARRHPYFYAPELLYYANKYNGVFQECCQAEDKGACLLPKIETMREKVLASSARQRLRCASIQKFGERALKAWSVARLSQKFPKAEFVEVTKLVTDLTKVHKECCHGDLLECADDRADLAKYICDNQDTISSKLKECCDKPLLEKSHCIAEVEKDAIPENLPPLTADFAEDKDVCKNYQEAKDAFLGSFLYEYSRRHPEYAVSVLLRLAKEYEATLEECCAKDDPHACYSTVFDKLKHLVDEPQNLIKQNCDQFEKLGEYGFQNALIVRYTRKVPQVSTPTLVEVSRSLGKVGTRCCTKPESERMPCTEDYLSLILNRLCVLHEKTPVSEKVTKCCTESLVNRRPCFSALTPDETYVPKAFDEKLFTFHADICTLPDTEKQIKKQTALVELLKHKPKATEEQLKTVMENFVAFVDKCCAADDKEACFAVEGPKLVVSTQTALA
# NUDT7 = target: T4, NUDT7 (Homo sapiens, UniProt P0C024); set-up: Intact protein LC/MS covalent labelling, fragments in pools of five, 200 uM each, 4 °C; details: 24 h, 4 °C, pool of five; 200 µM; covalent
# T4 construct: residues 14-235, E. coli, pNIC28-Bsa4, N-terminal His6 tag removed by TEV, construct 26672 Da
# T4 sequence (P0C024 14-235): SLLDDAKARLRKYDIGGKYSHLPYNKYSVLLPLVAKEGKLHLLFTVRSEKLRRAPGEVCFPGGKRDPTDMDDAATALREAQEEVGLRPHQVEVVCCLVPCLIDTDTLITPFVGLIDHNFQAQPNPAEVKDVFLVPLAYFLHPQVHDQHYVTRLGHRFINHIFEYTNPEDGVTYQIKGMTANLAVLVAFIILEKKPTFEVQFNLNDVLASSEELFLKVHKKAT
# in vitro [1] = assay: in vitro; set-up: species or system HB2, CCD841; details: human, hek293 cells
# in vitro [2] = assay: in vitro; set-up: species or system CCD841, HEK293; details: human, hb2 cells, read-out: HB-2 Cells Viability (%)
# in vitro [3] = assay: in vitro; set-up: species or system HB2, HEK293; details: human, ccd841 cells
# T1 sequence (Q92831 whole entry, the tested form may be a part): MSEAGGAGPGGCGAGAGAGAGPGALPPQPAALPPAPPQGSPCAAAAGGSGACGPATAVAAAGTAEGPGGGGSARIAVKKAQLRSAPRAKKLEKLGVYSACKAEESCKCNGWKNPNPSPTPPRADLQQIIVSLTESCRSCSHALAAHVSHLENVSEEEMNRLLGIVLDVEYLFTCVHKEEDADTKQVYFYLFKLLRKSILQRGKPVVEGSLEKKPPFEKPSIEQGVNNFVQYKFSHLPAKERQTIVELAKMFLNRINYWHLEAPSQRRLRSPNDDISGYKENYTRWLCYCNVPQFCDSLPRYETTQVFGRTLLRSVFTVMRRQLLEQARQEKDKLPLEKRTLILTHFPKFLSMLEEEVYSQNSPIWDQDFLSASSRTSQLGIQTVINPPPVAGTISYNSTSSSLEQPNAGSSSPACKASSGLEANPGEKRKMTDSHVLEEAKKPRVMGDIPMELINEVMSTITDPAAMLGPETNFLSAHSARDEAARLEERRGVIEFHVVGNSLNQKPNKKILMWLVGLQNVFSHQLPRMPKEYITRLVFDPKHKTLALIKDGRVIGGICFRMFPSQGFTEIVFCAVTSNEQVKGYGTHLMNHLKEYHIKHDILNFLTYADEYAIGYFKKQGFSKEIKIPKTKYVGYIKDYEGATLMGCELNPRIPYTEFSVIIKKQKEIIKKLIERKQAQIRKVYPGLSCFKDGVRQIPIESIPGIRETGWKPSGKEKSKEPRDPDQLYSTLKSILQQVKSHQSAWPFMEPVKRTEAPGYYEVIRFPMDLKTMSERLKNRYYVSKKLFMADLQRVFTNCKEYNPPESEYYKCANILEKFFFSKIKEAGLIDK
Structure (SMILES),PCAF (PCAF),OTUB2 (OTUB2 (OTUB2A)),BSA (BSA),NUDT7 (NUDT7),"viability at 48 h, 10 µM (in vitro [1])","viability at 48 h, 10 µM (in vitro [2])","viability at 48 h, 10 µM (in vitro [3])"
N#CC1(N2CCN(C(=O)CCl)CC2)CCCCC1 [PCM-0102303],0,0.07,0,0,91.6%,103%,107%
Cc1cc(CNC(=O)CCl)ccc1F [PCM-0102305],0,0.59,0.13,0,57.8%,85.5%,80.7%
O=C(CCl)N1CCN(C(=O)c2cccs2)CC1 [PCM-0102306],0,0,0,0,12.9%,39.9%,63.6%
O=C(CCl)Nc1ccccc1C(=O)O [PCM-0102307],0,0,0,0,78.8%,105%,96.5%
O=C(CCl)NC(=O)Nc1ccc(Br)cc1 [PCM-0102308],0,0.1,0.11,0.17,71.6%,78.8%,89.9%
O=C(CCl)Nc1ccccc1Br [PCM-0102312],0,0,0,0.15,92.9%,90.8%,89.7%
O=C(CCl)N(C1CCCC1)C1CCS(=O)(=O)C1 (stereo not drawn) [PCM-0102313],0,0,0,0.11,42.7%,64.5%,65.9%
O=C(CCl)Nc1ccc(Cl)c([N+](=O)[O-])c1 [PCM-0102316],0,0.36,0,0.28,1.1%,0.4%,1%
Cc1ccc(NC(=O)CCl)cc1 [PCM-0102320],0,0.24,0,0,8.7%,29.1%,63.2%
O=C(CCl)Nc1cc(C(F)(F)F)ccc1N1CCCC1 [PCM-0102321],0,0,0,0,110%,104%,116%
O=C(CCl)Nc1ccc(C(F)(F)F)cc1 [PCM-0102323],0,0.17,0,0.07,5.5%,11.1%,53.2%
COc1ccc2c(c1)CCCN2C(=O)CCl [PCM-0102325],0,0,0,0.12,1.8%,7.5%,40.2%
O=C(CCl)Nc1ncc(Br)s1 [PCM-0102326],0,0.06,0,0,23%,38%,47.7%
O=C(CCl)N1CCN(S(=O)(=O)c2cccc(F)c2)CC1 [PCM-0102327],0,0,0,0.13,8.1%,5.2%,45.3%
O=C(CCl)Nc1ccc(F)c(F)c1 [PCM-0102328],0,0.31,0.24,0,1.4%,14.3%,30.4%
O=C(CCl)Nc1cccc2c1N=S=N2 [PCM-0102329],0,0,0,0,19.9%,38.2%,50.1%
O=C(CCl)Nc1cc2c(cc1Cl)OCCCO2 [PCM-0102331],0,0.26,0,0.36,10.3%,17.2%,57.1%
CC1CCCC(NC(=O)NC(=O)CCl)C1C (stereo not drawn) [PCM-0102332],0,0,0,0,52.5%,48.7%,71%
O=C(CCl)NC(=O)Nc1ccc2c(c1)OCO2 [PCM-0102333],0,0.53,0,0.29,82.6%,83.2%,98.4%
CC(NC(=O)CCl)c1ccc(Cl)cc1 (stereo not drawn) [PCM-0102334],0,0.25,0,0,68.5%,78.4%,67.8%
CS(=O)(=O)c1ccc(NC(=O)CCl)cc1 [PCM-0102335],0,0.3,0,0.06,2.7%,37.1%,46%
O=C(CCl)N1CCNC1=O [PCM-0102338],0,0,0,0,86.5%,99.5%,98.6%
N#CC(c1ccc(F)cc1)N1CCN(C(=O)CCl)CC1 (stereo not drawn) [PCM-0102341],0,0,0,0,8.6%,28.6%,60.3%
CC(NC(=O)CCl)c1ccc2c(c1)OCCO2 (stereo not drawn) [PCM-0102342],0,0.57,0,0.08,73.1%,93.8%,87.2%
